Reference: patent US20090264289A1, “Use of Arylcarboxylic Acid Biphenylamides for Seed Treatment” (BASF SE, priority 2006, published 2009)

What was measured:
Format in all cases: in vivo
Puccinia recondita = assay: Activity against Puccinia recondita on wheat (solution pipetted to seedlings in vermiculite); settings: inoculated 7 days after treatment, 7 days incubation, control 80
Description: (§1) Activity Against Puccinia recondita on Wheat The active compounds were formulated as a stock solution in acetone at a concentration of 10 000 ppm. The stock solution was diluted with water to the stated active compound concentration. 1 ml of the respective solution was pipetted to wheat seedlings grown in vermiculite (10 to 12 seedlings per pot). 7 days after the treatment the wheat plants were inoculated with a spore suspension of Puccinia recondita. After 7 days of incubation, the extent of infection was determined visually in %. The concentration is given in g of active compound (g a.i.) per 100 kg of seeds.

Septoria tritici = assay: Activity against Septoria tritici on wheat (seedlings treated, detached leaf portions on agar inoculated); settings: wheat seedlings in vermiculite, leaf portions on agar inoculated 7 days after treatment, 18° C., 18 days incubation, control 100
Description: Activity Against Septoria tritici on Wheat The active compound Ia.1 was formulated as a stock solution in acetone at a concentration of 10 000 ppm. The stock solution was diluted with water to the stated active compound concentration. 1 ml of the respective solution was pipetted to wheat seedlings grown in vermiculite (10 to 12 seedlings per pot). 7 days after the treatment leaf portions of 5 cm length were placed in petri dishes filled with aqueous agar. The leaf portions were then inoculated with a spore suspension of Septoria tritici. The closed Petri dishes were incubated in a climatized test cabinet at 18° C. and 12 h light exposure per day. After 18 days of incubation, the extent of infection was determined visually in %. The concentration is given in g of active compound (g a.i.) per 100 kg of seeds.

Phakopsora pachyrhizi = assay: Activity against Phakopsora pachyrhizi on soybean (solution pipetted to seedlings in vermiculite); settings: 250 g a.i./100 kg, inoculated 7 days after treatment, 14 days incubation, control 88
Description: Activity Against Phakopsora pachyrhizi on Soybean
The active compounds were formulated as a stock solution in dimethylsulfoxide at a concentration of 10 000 ppm. The stock solution was diluted with water to the stated active compound concentration. 1 ml of the respective solution was pipetted to soybean seedlings grown in vermiculite (1 seedling per pot). 7 days after the treatment the soybean plants were inoculated with a spore suspension of Phakopsora pachyrhizi. After 14 days of incubation, the extent of infection was determined visually in %. The concentration is given in g of active compound (g a.i.) per 100 kg of seeds.

Erysiphe graminis = assay: Activity against Erysiphe graminis on wheat (solution pipetted to seedlings in vermiculite); settings: inoculated 7 days after treatment, 7 days incubation, control 80
Description: as §1, with “Erysiphe graminis” for “Puccinia recondita”, “Erysiphe graminis.” for “Puccinia recondita.”

Row | Compound | Infected leaf area (Puccinia recondita; 125 g a.i./100 kg) | Infected leaf area (Puccinia recondita; 250 g a.i./100 kg) | Infected leaf area (Septoria tritici; 125 g a.i./100 kg) | Infected leaf area (Septoria tritici; 250 g a.i./100 kg) | Infected leaf area (Phakopsora pachyrhizi) | Infected leaf area (Erysiphe graminis; 125 g a.i./100 kg) | Infected leaf area (Erysiphe graminis; 250 g a.i./100 kg)
1 | Cn1cc(C(=O)Nc2ccccc2-c2ccc(F)c(Cl)c2)c(C(F)F)n1 [Ia.44] | 0% | 0% |  |  |  |  | 
2 | Cn1cc(C(=O)Nc2c(F)cccc2-c2ccc(F)c(Cl)c2)c(C(F)F)n1 [Ia.249] | 0% | 0% |  |  |  |  | 
3 | Cn1cc(C(=O)Nc2ccc(F)cc2-c2ccc(Cl)c(Cl)c2)c(C(F)F)n1 [Ia.110] |  |  | 3% | 7% | 17% | 0% | 0%
4 | O=C(Nc1ccccc1-c1ccc(SC(F)(F)F)cc1)c1cccnc1Cl [Id.58] | 13% | 13% |  |  |  |  | 
5 | Cn1cc(C(=O)Nc2ccccc2-c2cccc(Cl)c2)c(CF)n1 [Ia.230] | 0% | 0% |  |  |  |  | 
6 | Cn1cc(C(=O)Nc2ccccc2-c2ccc(SC(F)(F)F)cc2)c(C(F)(F)F)n1 [Ia.173] | 0% | 0% |  |  |  | 0% | 0%
7 | Cn1cc(C(=O)Nc2ccccc2-c2ccc(F)c(F)c2)c(C(F)F)n1 [Ia.45] | 0% | 0% |  |  |  |  | 
8 | O=C(Nc1ccccc1-c1ccc(OC(F)(F)C(F)F)cc1)c1cccnc1Cl [Id.56] | 0% | 0% |  |  |  |  | 
9 | O=C(Nc1ccccc1-c1ccc(Cl)cc1)c1cccnc1Cl [Id.1] |  |  |  |  | 40% |  | 
10 | Cn1cc(C(=O)Nc2ccccc2-c2cc(F)cc(Cl)c2)c(C(F)(F)F)n1 [Ia.251] | 0% | 0% |  |  |  |  | 
11 | Cn1cc(C(=O)Nc2ccccc2-c2cc(F)c(F)c(F)c2)c(C(F)Cl)n1 (stereo not drawn) [Ia.211] | 0% | 0% |  |  | 3% | 0% | 0%
12 | Cn1cc(C(=O)Nc2ccccc2-c2cc(F)cc(F)c2)c(C(F)F)n1 [Ia.244] | 0% | 0% |  |  |  |  | 
13 | Cn1cc(C(=O)Nc2ccccc2-c2cccc(Cl)c2)c(C(F)F)n1 [Ia.231] | 0% | 0% |  |  |  |  | 
